≈ marks a conversion by molar mass, not a printed value. Entries after “also recorded” stand apart in the source; their conditions may differ.
What was measured:
[1] = molecular target: T1, Amyloid βeta (Aβeta) fragment 25-35 (Homo sapiens, UniProt P05067); assay: Dissolution of Amyloid beta fragments (transmission electron microscopy); assay type: biochemical; settings: for concentration at which the compound works in dissolving amyloid aggregates: Aβeta 25-35 50 μg/ml, 37° C., 6 days
T1 construct: Amyloid βeta (Aβeta) fragment 25-35 (Sigma A-4559); purchased Sigma A-4559
Procedure: Amyloid βeta (Aβeta) fragment 25-35 (Sigma A-4559) was diluted in water to a stock of 1 mg/ml. […] Samples were incubated at 37° C. for 6 days. Aggregation of the protein fragment was determined using transmission electron microscopy. 200 mesh carbon coated grids (Electron Microscopy Sciences) were used and prepared for negative staining by adding 5 μl of incubation mixture to the grid surface for one minute, followed by drying the grid with filter paper and contrasting with 5 μl of freshly filtered 2% phosphotungstic acid (pH=7.2) for one minute. Once grids were dry, examination was done using the FEI Tecnai Spirit at the College of Staten Island's Advanced Imaging Facility. Micrographs were captured using an AMT CCD camera.

[2] = test system: cultured hippocampal slices (normal brain tissue); assay: MTT cell viability assay on cultured hippocampal slices; assay type: cell-based, mouse; settings: for cell viability (MTT) versus control: overnight, hippocampal slices
Procedure: To assess the viability of the normal brain tissue in presence of the sweet curry MTT assay on cultured hippocampal slices were performed.
Mouse pups of specific ages were anesthetized with ketamine (100 mg/kg) and decapitated. Under sterile conditions, the brains were isolated and then cut at 60° from the longitudinal fissure at the top using a hippocampus-dissecting tool to expose the hippocampus. The hemispheres containing the hippocampi were then placed in modified Gey's balanced salt solution (mGBSS) at 4° C. for 30-40 minutes while bubbling a mixture of 95% O2 and 5% CO2. Individual hippocampi were isolated using dissection tool and then […] thick transverse slices were prepared using a tissue chopper (Stoelting, Wood Dale, Ill., USA). The slices were placed in ice cold mGBSS and inspected using a dissection microscope for the presence of uninterrupted bright transparent neuronal layers characteristic of the hippocampal structure. Only such slices were placed on Millicell CM filters (Millipore, Bedford, Mass., USA). The filters were placed in a six well dish with 1 ml of medium in each well. The slices were kept on high K^+ culture medium (25% horse serum, 50% Basal Essential Media-Eagles, 25% Eagle's Balanced Salt Solution (EBSS), 25 mM Na-HEPES, 1 mM Glutamine, 28 mM Glucose, pH 7.2) for the first two days. After incubation at 32° C. in a 5% CO2 atmosphere, the culture medium was changed to physiological K^+ slice culture medium (20% dialyzed fetal bovine serum, 5% Basal Essential Media-Eagles, and EBSS modified to adjust the K^+ concentration to 2.66 mM). After 20% dialyzed serum treatment for two days and the slices were placed in 5% serum medium (same medium as above but with 5% serum) for two days.
Hippocampal slices from adult mice brain were cultured as described by Mehta et al (2007). After six days in vitro the slices were treated with different concentrations of the sweet curry (i.e., 8 nM, 8 μM and 80 μM respectively) overnight along with the slices treated with the carrier as control.
After the treatment with sweet curry, slices from each treatment group were placed in 400 μl PBS in one well of 48-well plate and then treated with 200 μl of MTT (5 mg/ml) per well with gentle mixing at 37° C. for 2 hours. The slices were triturated to homogenize with the help of a micropipette. After that 800 μl of lysis buffer (20% SDS, 50% dimethylformamide) was added to each well and the plate was sealed and incubated overnight at 37° C. with gentle mixing. Now 100 μl mix from each well was taken in respective wells of a 96 well plate in triplicates and absorbance was measured at 570 nm using a plate reader. Results obtained were normalized to the total protein content and then expressed as percent carrier-treated samples.

[3] = Solubility study via UV-Vis spectroscopy (direct solubility in water)
[4] = Antioxidant potentiality assay by linoleic acid peroxidation (thiocyanide method); settings: in water, aqueous medium; FIG. 1
Procedure: 0.28 gm of linoleic acid, 0.28 gm of tween 40 as emulsifier and 50 ml of phosphate buffer (0.2 M, pH 7) were used to prepare a linoleic acid emulsion. The curcuminoids (5 mg per ml) were dissolved in water and 0.5 ml of each one of them was pipetted out into different test-tubes. Then 2.5 ml of linoleic acid emulsion was added to each one of them followed by the addition of 2.5 ml of phosphate buffer. All the tubes were incubated at 37° C. for 7 days. The mixture prepared as above without test sample was the control one. At the regular interval of 24 hours, 0.1 ml of the aliquots were drawn out of the incubation mixture and mixed with 5 ml of 75% ethanol, 0.1 ml of 30% ammonium thiocyanate and 0.1 ml of 20 mM ferrous chloride in 3.5% HCl. The tubes were allowed to stand in room temperature for 3 minutes. Spectrophotometric analysis was done at 500 nm. All the tests were carried out in duplicate and averaged. Anoxidant activity=[1-increase in absorbance of the sample/increase in absorbance of control]*100.

| SMILES | concentration at which the compound works in dissolving amyloid aggregates ([1]; electron micrographs) | effect on normal brain tissue (viability), conclusion ([2]; 8 nM to 80 μM) | cell viability (MTT) versus control ([2]; 8 nM) | cell viability (MTT) versus control ([2]; 8 μM) | cell viability (MTT) versus control ([2]; 80 μM) | solubility ([3]; deionized water, water, thermodynamic from solid) [mM] | solubility in water relative to curcumin and derivatives ([3]; water (plasma model), listed as Sweet curry 1d) | anti-oxidant potential (AOP), comparison in words [4] | effectiveness in dissolving amyloid aggregates ([1]; electron micrographs) | effectiveness in dissolving amyloid aggregates relative to curcumin ([1]; ratio of working concentrations) [times] |
| --- | --- | --- | --- | --- | --- | --- | --- | --- | --- | --- |
| COc1cc(/C=C/C(=O)CC(=O)/C=C/c2ccc(O)c(OC)c2)ccc1O [curcumin, (1E,6E)-1,7-bis(4-hydroxy-3-methoxyphenyl)hepta-1,6-diene 3,5-dione, reference compound] | 8 µM |  |  |  |  |  |  |  |  |  |
| COc1cc(/C=C/C(=O)CC(=O)/C=C/c2ccc(OCc3cn(CCOCCOCCOC4OC(CO)C(O)C(O)C4O)nn3)c(OC)c2)ccc1O (centres unmarked) [Compound 1d, curcumin-“Clicked”-mono-galactose] | 8 nmol | no harmful effect on the normal brain tissue | near the control samples | near the control samples | a little higher than the control samples | 6 (≈ 4460 µg/mL) | far superior solubility compared to curcumin in water; also recorded: superiorly soluble in water compared to Curcumin and derivatives 1a and 1b | much better antioxidant than Curcumin 1 as well as other curcumin derivatives (1a,1b) | significantly more effective than curcumin in dissolving amyloid aggregates | 1000 |
